We go through 40 compounds from ChEMBL document CHEMBL3044726, “Synthesis and Acaricidal Activities of New Benzophenone O-Methyloximes” (2001).

By LC50 is commonly meant the concentration that kills 50% of the test population.

Values after ≈ are worked out from the molar mass of the structure shown.

What all share (type): functional
Assay [1] relates to Tetranychus urticae. The experiment in a line: Acaricidal activity against Tetranychus urticae (two-spotted spider mite) in two-leaf stage of kidney bean leaf surface at 500 ppm after 6 hr relative to control.
For assay [2], the system named is Tetranychus urticae. The assay can be described thus: Acaricidal activity against Tetranychus urticae (two-spotted spider mite) in two-leaf stage of kidney bean leaf surface at 250 ppm after 6 hr relative to control.
Assay [3] deals with Tetranychus urticae. The assay can be described thus: Acaricidal activity against Tetranychus urticae (two-spotted spider mite) in two-leaf stage of kidney bean leaf surface at 15.6 ppm after 6 hr relative to control.
Assay [4] relates to Tetranychus urticae. The experiment in a line: Acaricidal activity against Tetranychus urticae (two-spotted spider mite) in two-leaf stage of kidney bean leaf surface at 62.5 ppm after 6 hr relative to control.
Assay [5] has as its system Tetranychus kanzawai. The assay can be described thus: Acaricidal activity against Tetranychus kanzawai in kidney bean leaf surface after 48 hr.
Assay [6] relates to Tetranychus urticae. The assay can be described thus: Acaricidal activity against Tetranychus urticae (two-spotted spider mite) in kidney bean leaf surface after 48 hr.

`CO/N=C(/c1ccc(Cl)cc1)c1ccccc1COc1nnc(C(F)(F)F)s1` had an Activity in assay [1] of 0%.
The same measure, in the same setting: in the case of `CO/N=C(/c1ccc(Cl)cc1)c1ccccc1COc1ncccc1C(F)(F)F` it was 0%.
In assay [1], `CO/N=C(/c1ccc(Cl)cc1)c1ccccc1COc1ncc(C(F)(F)F)cc1Cl` returned an Activity of 0%.
Still for that read-out and setting: in the case of `CO/N=C(/c1ccccc1)c1ccccc1COc1ccc(C(F)(F)F)cn1` it was 0%; in that of `CON=C(c1ccccc1F)c1ccccc1COc1ccc(C(F)(F)F)cn1`, 0%.
The same measure, in the same setting: in the case of `CO/N=C(/c1cccc(F)c1)c1ccccc1COc1ccc(C(F)(F)F)cn1` it was 70%.
`CO/N=C(/c1ccc(F)cc1)c1ccccc1COc1ccc(C(F)(F)F)cn1`: the Activity in assay [1] is recorded as 95%; in assay [2], 95%; in assay [3] it was 0%; in assay [4], 70%.
Regarding `CO/N=C(/c1ccccc1Cl)c1ccccc1COc1ccc(C(F)(F)F)cn1`, the Activity in assay [1] came out at 0%.
`CO/N=C(/c1cccc(Cl)c1)c1ccccc1COc1ccc(C(F)(F)F)cn1` gave an Activity in assay [1] of 0%.
Same read-out and setting: in the case of `CO/N=C(/c1ccc(C)cc1)c1ccccc1COc1ccc(C(F)(F)F)cn1` it was 0%; in that of `CO/N=C(/c1ccc(OC)cc1)c1ccccc1COc1ccc(C(F)(F)F)cn1`, 0%.
As for `CO/N=C(/c1ccc(Br)cc1)c1ccccc1COc1ccc(C(F)(F)F)cn1`, the Activity in assay [1] stood at 95%; in assay [2], 95%; in assay [3], 70%; in assay [4], 95%.
Regarding `CO/N=C(/c1ccc(C(F)(F)F)cc1)c1ccccc1COc1ccc(C(F)(F)F)cn1`, the Activity in assay [1] stood at 95%; in assay [2], 95%; in assay [3], 70%; in assay [4], 95%. The median lethal concentration (LC50) is 7.2 µg/mL (≈ 15.8 µM) in assay [5] and 24.8 µg/mL (≈ 54.6 µM) in assay [6].
In the case of `CO/N=C(/c1ccc(OC(F)(F)F)cc1)c1ccccc1COc1ccc(C(F)(F)F)cn1`, the Activity in assay [1] amounted to 95%; in assay [2], 70%; in assay [3], 0%; in assay [4], 70%.
Consider `CO/N=C(/c1ccc([N+](=O)[O-])cc1)c1ccccc1COc1ccc(C(F)(F)F)cn1`, for which the Activity in assay [1] is 95%; in assay [2], 95%; in assay [3] it was 0%; in assay [4], 70%.
As for `CO/N=C(/c1ccc(C#N)cc1)c1ccccc1COc1ccc(C(F)(F)F)cn1`, the Activity came out at 95% in assay [1], 95% in assay [2], 0% in assay [3] and 70% in assay [4].
Compound `CO/N=C(/c1ccc(-c2ccccc2)cc1)c1ccccc1COc1ccc(C(F)(F)F)cn1` came in with an Activity in assay [1] of 0%.
Take `CO/N=C(/c1ccc(Oc2ccccc2)cc1)c1ccccc1COc1ccc(C(F)(F)F)cn1`: the Activity in assay [1] was found to be 0%.
On the same count and under the same terms, in the case of `CO/N=C(/c1ccc(Cl)cc1)c1ccccc1COc1ccccc1` it was 0%; in that of `CO/N=C(/c1ccc(Cl)cc1)c1ccccc1COc1ccccc1Cl`, 0%.
The same measure, in the same setting: as for `CO/N=C(/c1ccc(Cl)cc1)c1ccccc1COc1cccc(Cl)c1`, the figure is 0%; as for `CO/N=C(/c1ccc(Cl)cc1)c1ccccc1COc1ccc(Cl)cc1`, 0%; as for `CO/N=C(/c1ccc(Cl)cc1)c1ccccc1COc1ccccc1C(F)(F)F`, 0%.
On to `CO/N=C(/c1ccc(Cl)cc1)c1ccccc1COc1cccc(C(F)(F)F)c1`, for which the Activity in assay [1] was 0%.
For the compound `CO/N=C(/c1ccc(Cl)cc1)c1ccccc1COc1ccc(C(F)(F)F)cc1`, the Activity was found to be 95% in assay [1], 95% in assay [2] and 0% in assay [4].
`CO/N=C(/c1ccc(Cl)cc1)c1ccccc1COc1ccc(C)cc1` registered an Activity in assay [1] of 0%.
Still for that read-out and setting: in the case of `CO/N=C(/c1ccc(Cl)cc1)c1ccccc1COc1ccc(C(C)(C)C)cc1` it was 0%; in that of `CO/N=C(/c1ccc(Cl)cc1)c1ccccc1COc1ccc(OC(F)(F)F)cc1`, 0%.
Still for that read-out and setting: as for `CO/N=C(/c1ccc(Cl)cc1)c1ccccc1COc1ccc(-c2ccccc2)cc1`, the figure is 0%.
In the case of `CO/N=C(\c1ccc(Cl)cc1)c1ccccc1COc1ccc(C(F)(F)F)cc1`, the Activity in assay [1] turned out to be 95%; in assay [2], 70%.
The compound `CON=C(c1ccc(Cl)cc1)c1cccc(COc2ccc(C(F)(F)F)cc2)c1` displayed an Activity in assay [1] of 0%.
Same read-out and setting: in the case of `CON=C(c1ccc(Cl)cc1)c1ccc(COc2ccc(C(F)(F)F)cc2)cc1` it was 0%; in that of `CO/N=C(\c1ccc(F)cc1)c1ccccc1COc1ccc(C(F)(F)F)cc1`, 70%.
Take `CO/N=C(/c1ccc(F)cc1)c1ccccc1COc1ccc(C(F)(F)F)cc1`: the Activity in assay [1] is 95%; in assay [2], 0%.
As to `CON=C(c1ccc(F)cc1)c1cccc(COc2ccc(C(F)(F)F)cc2)c1`, the Activity in assay [1] was found to be 0%.
The compound `CON=C(c1ccc(F)cc1)c1ccc(COc2ccc(C(F)(F)F)cc2)cc1` came in with an Activity in assay [1] of 0%.
On to `CO/N=C(/c1ccc(Cl)cc1)c1ccccc1Oc1ccc(C(F)(F)F)cc1`, for which the Activity in assay [1] is reported as 0%.
For `CO/N=C(/c1ccc(Cl)cc1)c1ccccc1OCc1ccc(C(F)(F)F)cc1`, the Activity in assay [1] is 0%.
For the compound `CO/N=C(/c1ccc(Cl)cc1)c1ccccc1COc1ccc(C(F)(F)F)cn1`, the Activity in assay [1], in assay [2], in assay [3] and in assay [4] was 95% in each case. The LC50 in assay [5] was found to be 9 µg/mL (≈ 21.4 µM); in assay [6], 16.4 µg/mL (≈ 39 µM).
In the case of `CC(C)(C)c1ccc(CSc2cnn(C(C)(C)C)c(=O)c2Cl)cc1` [PYRIDABEN], the LC50 in assay [5] was 33.7 µg/mL (≈ 92.3 µM); in assay [6], 34.5 µg/mL (≈ 94.5 µM).
